Biological target: T1, GRP receptors on Swiss 3T3 cells (Mus musculus, UniProt P21729)
T1 construct: endogenous in cells; host or cells: Swiss 3T3 mouse fibroblasts (whole cells)
Assay: Competitive cell binding vs 125I-Tyr4-BBN, Swiss 3T3 cells
Method: The binding affinities of the synthetic BBN derivatives were assessed for GRP receptors on Swiss 3T3 cells and, in some cases, on a variety of human cancer cell lines, that express GRP receptors. […] The cell binding assay methods used to measure the IC50's is standard and used techniques previously reported [Jensen et al., 1993; Cai et al., 1994; Cai et al., 1992]. The methods used for determining IC50's for all GRP receptor binding compounds on all cell lines was similar. The specific method used to measure IC50's on Swiss 3T3 cells is briefly described as follows:
(§1) Swiss 3T3 mouse fibroblasts are grown to confluence in 48 well microtiter plates. […] The growth media was removed, the cells were washed twice with incubation media, and incubation media was returned to the cells. ^125I-Tyr4-BBN (0.01 uCi) was added to each well in the presence of increasing concentrations of the appropriate competitive peptide. Typical concentrations of displacing peptide ranged from 10-12 to 10-5 moles of displacing ligand per well. The cells were incubated at 37° C. for forty minutes in a 95% […]/5% CO2 humidified environment. At forty minutes post initiation of the incubation, the medium was discarded, and the cells were washed twice with cold incubation media. The cells were harvested from the wells following incubation in a trypsin/EDTA solution for five minutes at 37° C. Subsequently, the radioactivity, per well, was determined and the maximum % total uptake of the radiolabeled peptide was determined and normalized to 100%.
The binding affinities of the synthetic BBN derivatives were assessed for GRP receptors on Swiss 3T3 cells, PC-3 cells and CF PAC-1 cells. The IC50's of each of derivative were determined relative to (i.e., in competition with) ^125I-Tyr^4-BBN. The cell binding assay methods used to measure the IC50's is standard and was used by techniques previously reported [Jensen et al., 1993; Cai et al., 1992; Cai et al., 1994]. The methods used for determining IC50's with all BBN analogue binding to GRP receptors present on all three cell lines were similar. The specific method used to measure IC50's on Swiss 3T3 cells, is briefly described as follows:
as §1, with “microliter” for “microtiter”, “^125I-Tyr^4-BBN” for “^125I-Tyr4-BBN”, “μCi)” for “uCi)”, “10^−12” for “10-12”, “10^−5” for “10-5”, “100%. A similar procedure was used in performing cell binding assays with both the PC-3 and CFa-PAC-1 human cancer cell lines.” for “100%.”

T1 sequence (P21729 whole entry): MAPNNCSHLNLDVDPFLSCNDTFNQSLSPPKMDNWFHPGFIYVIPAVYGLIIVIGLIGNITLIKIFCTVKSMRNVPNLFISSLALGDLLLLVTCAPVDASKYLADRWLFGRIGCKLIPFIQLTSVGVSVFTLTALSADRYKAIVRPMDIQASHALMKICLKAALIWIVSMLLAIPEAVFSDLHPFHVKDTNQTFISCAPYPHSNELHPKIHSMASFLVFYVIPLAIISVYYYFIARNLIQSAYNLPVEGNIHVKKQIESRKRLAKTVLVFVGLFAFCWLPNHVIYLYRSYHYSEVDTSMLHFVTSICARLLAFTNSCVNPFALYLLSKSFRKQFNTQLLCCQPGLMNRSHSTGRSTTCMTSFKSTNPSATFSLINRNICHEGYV

| Structure (SMILES) | IC50 [nM] |
| --- | --- |
| CSCC[C@H](NC(=O)[C@H](CC(C)C)NC(=O)[C@H](Cc1c[nH]cn1)NC(=O)CNC(=O)[C@@H](NC(=O)[C@H](C)NC(=O)[C@H](Cc1c[nH]c2ccccc12)NC(=O)[C@H](CCC(N)=O)NC(=O)CCNC(=O)COC1CSCCCSCCCSCCCSC1)C(C)C)C(N)=O [BBN-46] | 2.34 ± 0.53 |
| CSCC[C@H](NC(=O)[C@H](CC(C)C)NC(=O)[C@H](Cc1c[nH]cn1)NC(=O)CNC(=O)[C@@H](NC(=O)[C@H](C)NC(=O)[C@H](Cc1c[nH]c2ccccc12)NC(=O)[C@H](CCC(N)=O)NC(=O)CCCCCCCNC(=O)COC1CSCCCSCCCSCCCSC1)C(C)C)C(N)=O [BBN-47] | 4.19 ± 0.91 |
| CSCC[C@H](NC(=O)[C@H](CC(C)C)NC(=O)[C@H](Cc1c[nH]cn1)NC(=O)CNC(=O)[C@@H](NC(=O)[C@H](C)NC(=O)[C@H](Cc1c[nH]c2ccccc12)NC(=O)[C@H](CCC(N)=O)NC(=O)CCNC(=O)COC1CSCCCSCCCSCCCSC1)C(C)C)C(N)=O [RhCl2BBN-46] | 3.38 ± 0.69 |
